Results on three compounds are retold here after patent EP0796090B1, “CROSS-LINKED MICROPARTICLES AND THEIR USE AS T[…]” (Elan Drug Delivery Limited, priority 1994, dated 1996).

The test system of the assay is HSN cell line. Kind of assay: In vitro cytotoxic activity, MTT assay. In kind it is cell-based, rat. To be noted: HSN cells; for Emax: Rattus norvegicus, read-out: maximum reduction in cell activity. The procedure: Cytotoxic activity of the drug-microcapsule conjugates of Examples 5 to 7 was measured in vitro. The HSN cell line was used. This is a chemically-induced rat colonic sarcoma, which produces liver tumours in an animal model with a vascular pattern similar to that seen in human colorectal liver metastases. Cell kill was measured indirectly using MTT. This is reduced in active mitochondria to formazan, a coloured metabolite. HSN cells were incubated in multi-well plates to which was added a control dose of drug or drug-microcapsule lysate. After a range of exposure times, MTT was added to the wells and the concentration of formazan measured as an indication of […]. The assay was calibrated for this cell line against a range of known cell numbers.

Consider “2-fluoro-5-deoxyuridine [Example 5-FUdR]”, for which the “maximum reduction in cell activity” value is “approximately 80%”. Consider `COc1cccc2c1C(=O)c1c(O)c3c(c(O)c1C2=O)C[C@@](O)(C(=O)CO)C[C@@H]3O[C@H]1C[C@H](N)[C@H](O)[C@H](C)O1` [doxorubicin], for which the “steepest part of the dose response curve” value was not above 0.1 µg/mL and the Emax was approximately 80%. On to `CN(Cc1cnc2nc(N)nc(N)c2n1)c1ccc(C(=O)N[C@@H](CCC(=O)O)C(=O)O)cc1` [methotrexate], for which the Emax was approximately 80%.
